Values joined by “and” are separate entries in the source; they are usually repeats but may differ in a detail not shown here. Identical values can stand only once. Like-named read-outs stand apart in the source and are kept apart here.
Assays:
M5 muscarinic receptor = target: T1, M5 muscarinic receptor (Homo sapiens, UniProt P08912); experiment: R-SAT functional receptor assay, M5; format: cell-based; settings: for Emax: read-out: % Efficacy M5; for % Efficacy M5: relative to full agonist carbachol
T1 construct: expressed in transfected cells
T1 sequence (P08912 1-532): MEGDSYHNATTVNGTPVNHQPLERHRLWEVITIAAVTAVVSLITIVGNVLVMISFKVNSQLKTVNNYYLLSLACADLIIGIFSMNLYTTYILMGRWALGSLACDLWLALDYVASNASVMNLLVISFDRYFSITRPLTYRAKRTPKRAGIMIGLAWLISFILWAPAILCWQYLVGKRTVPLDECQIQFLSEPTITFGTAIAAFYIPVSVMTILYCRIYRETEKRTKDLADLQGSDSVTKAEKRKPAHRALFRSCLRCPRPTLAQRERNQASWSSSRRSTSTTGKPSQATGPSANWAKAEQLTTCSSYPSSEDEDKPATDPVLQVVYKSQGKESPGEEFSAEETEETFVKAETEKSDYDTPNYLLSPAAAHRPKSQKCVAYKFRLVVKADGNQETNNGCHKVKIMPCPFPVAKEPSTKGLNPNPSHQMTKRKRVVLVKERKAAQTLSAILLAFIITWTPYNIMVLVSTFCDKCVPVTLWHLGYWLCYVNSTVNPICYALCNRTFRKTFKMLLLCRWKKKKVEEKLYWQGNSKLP

M4 muscarinic receptor [1] = target: T2, M4 muscarinic receptor (Homo sapiens, UniProt P08173); experiment: cell-based; settings: read-out: % Efficacy M4
T2 sequence (P08173 1-479): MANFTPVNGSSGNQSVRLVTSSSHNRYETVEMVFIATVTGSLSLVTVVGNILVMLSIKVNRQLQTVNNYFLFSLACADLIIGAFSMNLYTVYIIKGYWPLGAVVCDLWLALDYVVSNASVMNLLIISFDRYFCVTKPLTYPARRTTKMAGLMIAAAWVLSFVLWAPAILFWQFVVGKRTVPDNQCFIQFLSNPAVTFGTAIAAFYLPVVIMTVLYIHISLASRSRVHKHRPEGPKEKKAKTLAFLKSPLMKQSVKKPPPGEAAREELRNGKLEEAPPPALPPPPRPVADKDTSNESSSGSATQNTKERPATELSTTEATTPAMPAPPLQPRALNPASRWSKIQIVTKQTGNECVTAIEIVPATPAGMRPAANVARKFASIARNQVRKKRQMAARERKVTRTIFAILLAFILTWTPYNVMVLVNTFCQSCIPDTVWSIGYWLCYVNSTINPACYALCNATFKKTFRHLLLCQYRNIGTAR

M2 muscarinic receptor = target: T3, M2 muscarinic receptor (Homo sapiens, UniProt P08172); experiment: R-SAT functional receptor assay, M2; settings: for Emax: read-out: % Efficacy M2
T3 sequence (P08172 1-466): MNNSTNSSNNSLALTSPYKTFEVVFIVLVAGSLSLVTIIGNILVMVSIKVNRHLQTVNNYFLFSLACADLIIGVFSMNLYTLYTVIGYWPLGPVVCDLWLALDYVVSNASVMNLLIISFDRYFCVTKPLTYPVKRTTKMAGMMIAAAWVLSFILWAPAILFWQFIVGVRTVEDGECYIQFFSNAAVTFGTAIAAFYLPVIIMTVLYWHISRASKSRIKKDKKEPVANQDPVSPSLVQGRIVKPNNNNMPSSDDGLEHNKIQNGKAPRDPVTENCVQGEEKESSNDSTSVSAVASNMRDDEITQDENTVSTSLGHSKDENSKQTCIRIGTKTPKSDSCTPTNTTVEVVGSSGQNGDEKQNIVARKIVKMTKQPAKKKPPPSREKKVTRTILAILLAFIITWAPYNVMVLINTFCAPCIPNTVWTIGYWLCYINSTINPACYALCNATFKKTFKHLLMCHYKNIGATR

M3 muscarinic receptor = M3 muscarinic receptor (Homo sapiens, UniProt P20309); experiment: R-SAT functional receptor assay, M3; settings: for Emax: read-out: % Efficacy M3
[2] = tested on: hippocampal MAP kinase (MAPK) activity in CA1 pyramidal neurons; experiment: hippocampal MAP kinase activation assay after parenteral administration; format: in vivo, C57BL6 mice
[3] = target: T4, human M1 muscarinic receptors (Homo sapiens, UniProt P11229); experiment: cell-based; settings: ± standard deviation
[4] = target: T4, human M1 muscarinic receptors; settings: PI hydrolysis; ± standard deviation
[5] = target: T4, human M1 muscarinic receptors; experiment: cell-based
[6] = target: T4, human M1 muscarinic receptors; settings: R-SAT; relative to full agonist carbachol; ± standard deviation
M4 muscarinic receptor [7] = target: T2, M4 muscarinic receptor; settings: R-SAT; relative to full agonist carbachol; ± standard deviation

Sequence of M3 muscarinic receptor (P20309 whole entry): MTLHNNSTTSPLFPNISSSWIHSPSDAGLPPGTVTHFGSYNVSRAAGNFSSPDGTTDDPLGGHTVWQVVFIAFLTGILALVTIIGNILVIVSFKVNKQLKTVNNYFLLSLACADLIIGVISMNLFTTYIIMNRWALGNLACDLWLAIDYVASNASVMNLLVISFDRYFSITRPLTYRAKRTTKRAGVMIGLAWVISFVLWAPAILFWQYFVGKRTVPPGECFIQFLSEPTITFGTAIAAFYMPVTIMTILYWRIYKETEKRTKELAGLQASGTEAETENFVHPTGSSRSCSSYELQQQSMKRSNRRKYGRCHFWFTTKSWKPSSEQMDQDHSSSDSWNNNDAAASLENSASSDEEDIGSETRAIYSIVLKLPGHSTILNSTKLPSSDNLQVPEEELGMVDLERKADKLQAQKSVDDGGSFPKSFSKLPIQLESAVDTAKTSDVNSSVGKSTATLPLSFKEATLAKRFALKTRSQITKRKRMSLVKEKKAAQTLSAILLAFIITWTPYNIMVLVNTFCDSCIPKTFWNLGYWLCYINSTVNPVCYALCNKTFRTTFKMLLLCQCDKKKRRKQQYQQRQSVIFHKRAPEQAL
T4 sequence (P11229 whole entry): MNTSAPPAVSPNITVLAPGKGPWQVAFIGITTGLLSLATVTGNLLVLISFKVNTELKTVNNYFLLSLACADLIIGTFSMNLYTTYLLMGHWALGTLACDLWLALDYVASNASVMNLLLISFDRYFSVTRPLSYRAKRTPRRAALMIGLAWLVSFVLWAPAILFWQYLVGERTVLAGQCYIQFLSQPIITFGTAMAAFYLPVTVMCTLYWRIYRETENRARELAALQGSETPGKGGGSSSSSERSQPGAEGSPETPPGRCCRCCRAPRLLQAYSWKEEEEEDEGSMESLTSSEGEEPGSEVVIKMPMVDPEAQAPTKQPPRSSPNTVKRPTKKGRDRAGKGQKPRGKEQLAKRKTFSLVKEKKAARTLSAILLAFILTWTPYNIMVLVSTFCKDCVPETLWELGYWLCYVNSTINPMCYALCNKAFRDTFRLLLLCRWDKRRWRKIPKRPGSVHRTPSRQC

SMILES | Emax (M5 muscarinic receptor) [%] | Emax (M4 muscarinic receptor [1]) [%] | Emax (M2 muscarinic receptor) [%] | Emax (M3 muscarinic receptor) [%] | % Efficacy M5 (M5 muscarinic receptor; R-SAT, ± standard deviation) | further results
C[N+](C)(C)CCOC(N)=O [Carbachol, carbachol] | 105 ± 3 | 96 ± 3 | – | – | – | –
Clc1ccc2c(c1)N=C(N1CCNCC1)c1ccccc1N2 [N-desmethylclozapine, 8-chloro-11-(1-piperazinyl)-5H-dibenzo[b,e][1,4]diazepine] | 66 ± 4 | 88 ± 3 | 78 ± 7 | 19 ± 3 | – | EC50 (M3 muscarinic receptor): 129 nM; blood brain barrier penetration ([2]; concluded from central MAPK activation after s.c. dosing): penetrates the blood brain barrier; MAPK activation in hippocampus ([2]; s.c., dose of 30 mg/kg): Robust activation; phospho-MAPK immunoreactivity in CA1 pyramidal neurons ([2]; s.c., immunohistochemistry, compared to vehicle or clozapine treatment): increased phospho-MAPK immunoreactivity; EC50 (M5 muscarinic receptor; R-SAT, ± standard deviation, read-out: pEC50 M5 (converted)): 45.7 nM; EC50 ([3]; pEC50 M1, R-SAT): 63.1 nM and 60.3 nM; Emax ([3]; read-out: % Efficacy M1, R-SAT, relative to full agonist carbachol): 65%; pEC50 M1 [4]: 7.01 ± 0.06; EC50 [5]: 100 nM; Emax ([5]; read-out: % Efficacy M1, PI hydrolysis, relative to full agonist carbachol, ± standard deviation): > 65%; % Efficacy M1 [6]: 61 ± 5%; EC50 (M2 muscarinic receptor): 182 nM
Cc1cc2c(s1)Nc1ccccc1N=C2N1CCN(C)CC1 [Olanzapine, olanzapine] | – | – | – | – | no response | % Efficacy M4 (M4 muscarinic receptor [7]): no response; % Efficacy M2 (M2 muscarinic receptor; R-SAT, relative to full agonist carbachol, ± standard deviation): no response

Continued, in another order:

Emax (M5 muscarinic receptor) [%] | Emax (M4 muscarinic receptor [1]) [%] | Emax (M2 muscarinic receptor) [%] | Emax (M3 muscarinic receptor) [%] | SMILES | % Efficacy M5 (M5 muscarinic receptor; R-SAT, ± standard deviation) | further results
– | 49 ± 6 | 57 ± 4 | – | CN1CCN(C2=Nc3cc(Cl)ccc3Nc3ccccc32)CC1 [Clozapine, clozapine] | no response | –
86 ± 12 | 116 ± 9 | 106 ± 9 | 66 ± 6 | CCCCCCOc1nsnc1C1=CCCN(C)C1 [Xanomeline] | – | –
